What all share (format): cell-based
In one assay the test system is Botrytis cinerea. Kind of assay: Fungicidal activity screen in amended agar, 96 well plates, Botrytis cinerea. The conditions noted are these: Medium N agar, 5,000 spores/ml, 20, 2, 0.2 and 0.02 ppm, room temperature (18° C.), assessed after 3 to 4 days, read-out: Botrytis (fungal growth vs DMSO controls, EC50 ranking). On the procedure: (§1) Compounds were screened in 96 well plates with 10 compounds per plate. Each compound was screened using agar amended to 20, 2, 0.2 and 0.02 ppm of the test material. Proline at 50 and 10 ppm and 0.2% DMSO were used respectively as positive and negative controls. Each test concentration and standard were tested twice on a plate.
(§2) Compounds were screened against the following three fungal pathogens—Botrytis cinerea, Alternaria alternata and Zymoseptoria tritici. The agar used in the test varied depending on the pathogen with Medium N used for B. cinerea and A. alternata and 1% potato dextrose agar for Z. tritici. For each pathogen sufficient spores were added to the appropriate agar to give 1,000 spores/mL agar of A. alternata, 5,000 spores/ml agar of B. cinerea and 10,000 spores/mL agar of Z. tritici.
(§3) A ×10 stock solution in 2% DMSO was produced for each dose i.e. 200, 20, 2 and 0.2 ppm, and 10 μl of this added to the appropriate wells on the plate. An equivalent amount of 2% DMSO and Proline stock at 500 and 100 ppm were added for the controls. To each well, 90 μl of the appropriate agar spore suspension was added to give the final well concentrations outlined in the first paragraph.
(§4) Plates were incubated at room temperature (18° C.) and assessed after: • a) 3 to 4 days A. alternata and B. cinerea • b) 7 days for Z. tritici
(§5) The amount of fungal growth in each well was compared to the DMSO controls and scored according to the following key: • A—EC50<2 ppm • B—2≤EC50<20 • C—EC50≥20 • D—No activity detected at the highest dose tested • NT—Not tested

Another assay has as its system Zymoseptoria tritici. Kind of assay: Fungicidal activity screen in amended agar, 96 well plates, Zymoseptoria tritici. The following applies: Zymoseptoria tritici, 168 h; 1% potato dextrose agar, 10,000 spores/mL, 20, 2, 0.2 and 0.02 ppm, room temperature (18° C.), assessed after 7 days; read-out: Zymoseptoria (fungal growth vs DMSO controls, EC50 ranking). On the procedure: as §1, §2, §3, §4, §5

The subject of the next assay is Alternaria alternata. Nature of the assay: Fungicidal activity screen in amended agar, 96 well plates, Alternaria alternata. The following applies: Medium N agar, 1,000 spores/mL, 20, 2, 0.2 and 0.02 ppm, room temperature (18° C.), assessed after 3 to 4 days, read-out: Alternaria (fungal growth vs DMSO controls, EC50 ranking). As to the method: as §1, §2, §3, §4, §5

In brackets after ≈: the same amount, converted by molar mass. Bounds are passed on as bounds.

By EC50 is commonly meant the concentration giving half of the maximal effect.

In the case of `COc1ccccc1Oc1ccc2nc(-n3c(=S)oc4c(OC)ccnc4c3=O)sc2n1` [Example 42, 8-methoxy-3-(5-(2-methoxyphenoxy)thiazolo[5,4-b]pyridin-2-yl)-2-thioxo-2,3-dihydro-4H-pyrido[2,3-e][1,3]oxazin-4-one], the EC50 is ≥ 20 µg/mL in the assay with Botrytis cinerea, 2 to 20 µg/mL (≈ 4.29 to 42.9 µM) in the assay with Zymoseptoria tritici and ≥ 20 µg/mL in the assay with Alternaria alternata.
For `COc1ccnc2c(=O)n(-c3nc4ccc(Sc5cccnc5Cl)cc4s3)c(=S)oc12` [Example 47, 3-(6-((2-chloropyridin-3-yl)thio)benzo[d]thiazol-2-yl)-8-methoxy-2-thioxo-2,3-dihydro-4H-pyrido[2,3-e][1,3]oxazin-4-one], the half-maximal effective concentration (EC50) was ≥ 20 µg/mL with Botrytis cinerea, < 2 µg/mL in the assay with Zymoseptoria tritici and ≥ 20 µg/mL with Alternaria alternata.
As for `COc1ccnc2c(=O)n(-c3nc4ccc(Oc5ccc(C(F)(F)F)cc5Cl)nc4s3)c(=S)oc12` [Example 48, 3-(5-(2-chloro-4-(trifluoromethyl)phenoxy)thiazolo[5,4-b]pyridin-2-yl)-8-methoxy-2-thioxo-2,3-dihydro-4H-pyrido[2,3-e][1,3]oxazin-4-one], the EC50 is ≥ 20 µg/mL with Botrytis cinerea, < 2 µg/mL in the assay with Zymoseptoria tritici and ≥ 20 µg/mL in the assay with Alternaria alternata.
As for `CCOc1ccccc1Oc1ccc2nc(-n3c(=S)oc4c(OC)ccnc4c3=O)sc2c1` [Example 49, 3-(6-(2-ethoxyphenoxy)benzo[d]thiazol-2-yl)-8-methoxy-2-thioxo-2,3-dihydro-4H-pyrido[2,3-e][1,3]oxazin-4-one], the EC50 was ≥ 20 µg/mL in the assay with Botrytis cinerea, < 2 µg/mL in the assay on Zymoseptoria tritici and ≥ 20 µg/mL in the assay on Alternaria alternata.
Take `COc1ccnc2c(=O)n(-c3nc4ccc(Oc5ccccc5OC(F)F)cc4s3)c(=S)oc12` [Example 50, 3-(6-(2-(difluoromethoxy)phenoxy)benzo[d]thiazol-2-yl)-8-methoxy-2-thioxo-2,3-dihydro-4H-pyrido[2,3-e][1,3]oxazin-4-one]: the EC50 in the assay on Botrytis cinerea was ≥ 20 µg/mL; in the assay on Zymoseptoria tritici, < 2 µg/mL; in the assay with Alternaria alternata, ≥ 20 µg/mL.

The record behind these values is US12415815B2, “Pyrido[2,3-e]oxazine derivatives as agricultural chemicals” (GLOBACHEM NV, priority 2020, dated 2025).
